PMC12621043, “Un-LOK-ing a New Approach for Conformational Selective Targeting of STK10 (LOK)” (ACS Medicinal Chemistry Letters, 2025)

Assays:
Assay in all cases: DSF Tm panel
Format in all cases: binding
Conditions in all cases: 10 μM compound
PDK4A = target: T1, PDK4A (Homo sapiens, UniProt Q16654)
T1 construct: purchased in-house DSF kinase panel (SGC-style construct names; the trailing letter is the construct ID)

RIOK1A = target: T2, RIOK1A (Homo sapiens, UniProt Q9BRS2)
T2 construct: purchased in-house DSF kinase panel (SGC-style construct names; the trailing letter is the construct ID)
T2 sequence (Q9BRS2 143-494): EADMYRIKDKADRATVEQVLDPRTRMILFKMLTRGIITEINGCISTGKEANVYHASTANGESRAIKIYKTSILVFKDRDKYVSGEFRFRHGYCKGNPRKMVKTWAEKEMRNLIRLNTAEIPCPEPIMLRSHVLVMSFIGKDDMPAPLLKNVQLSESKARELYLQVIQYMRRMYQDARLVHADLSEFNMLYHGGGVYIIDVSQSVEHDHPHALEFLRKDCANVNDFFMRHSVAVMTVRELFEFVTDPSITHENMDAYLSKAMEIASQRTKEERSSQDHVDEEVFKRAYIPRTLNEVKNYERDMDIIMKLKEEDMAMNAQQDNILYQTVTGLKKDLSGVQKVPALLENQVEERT

MAP2K7A = target: T3, MAP2K7A (Homo sapiens, UniProt O14733)
T3 construct: purchased in-house DSF kinase panel (SGC-style construct names; the trailing letter is the construct ID)
T3 sequence (O14733 120-400): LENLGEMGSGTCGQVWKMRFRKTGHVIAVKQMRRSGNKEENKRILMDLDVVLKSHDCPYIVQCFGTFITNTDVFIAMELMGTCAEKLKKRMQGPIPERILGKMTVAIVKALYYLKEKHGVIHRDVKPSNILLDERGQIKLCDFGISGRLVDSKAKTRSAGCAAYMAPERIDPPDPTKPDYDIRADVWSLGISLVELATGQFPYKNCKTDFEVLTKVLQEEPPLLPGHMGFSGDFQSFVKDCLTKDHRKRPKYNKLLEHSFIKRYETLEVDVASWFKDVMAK

MAPKAPK2A = target: T4, MAPKAPK2A (Homo sapiens, UniProt P49137)
T4 construct: purchased in-house DSF kinase panel (SGC-style construct names; the trailing letter is the construct ID)

NQO2A = target: T5, NQO2A (Homo sapiens, UniProt P16083)
T5 construct: purchased in-house DSF kinase panel (SGC-style construct names; the trailing letter is the construct ID)
T5 sequence (P16083 1-231): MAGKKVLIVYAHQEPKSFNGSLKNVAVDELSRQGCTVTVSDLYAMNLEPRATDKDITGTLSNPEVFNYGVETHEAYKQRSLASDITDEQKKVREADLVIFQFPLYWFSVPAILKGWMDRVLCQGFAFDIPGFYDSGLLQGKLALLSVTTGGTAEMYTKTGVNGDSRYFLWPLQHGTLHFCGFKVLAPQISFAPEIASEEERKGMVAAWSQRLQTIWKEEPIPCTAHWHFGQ

TIF1A = target: T6, TIF1A (Homo sapiens, UniProt O15164)
T6 construct: purchased in-house DSF kinase panel (SGC-style construct names; the trailing letter is the construct ID)
T6 sequence (O15164 1-1050): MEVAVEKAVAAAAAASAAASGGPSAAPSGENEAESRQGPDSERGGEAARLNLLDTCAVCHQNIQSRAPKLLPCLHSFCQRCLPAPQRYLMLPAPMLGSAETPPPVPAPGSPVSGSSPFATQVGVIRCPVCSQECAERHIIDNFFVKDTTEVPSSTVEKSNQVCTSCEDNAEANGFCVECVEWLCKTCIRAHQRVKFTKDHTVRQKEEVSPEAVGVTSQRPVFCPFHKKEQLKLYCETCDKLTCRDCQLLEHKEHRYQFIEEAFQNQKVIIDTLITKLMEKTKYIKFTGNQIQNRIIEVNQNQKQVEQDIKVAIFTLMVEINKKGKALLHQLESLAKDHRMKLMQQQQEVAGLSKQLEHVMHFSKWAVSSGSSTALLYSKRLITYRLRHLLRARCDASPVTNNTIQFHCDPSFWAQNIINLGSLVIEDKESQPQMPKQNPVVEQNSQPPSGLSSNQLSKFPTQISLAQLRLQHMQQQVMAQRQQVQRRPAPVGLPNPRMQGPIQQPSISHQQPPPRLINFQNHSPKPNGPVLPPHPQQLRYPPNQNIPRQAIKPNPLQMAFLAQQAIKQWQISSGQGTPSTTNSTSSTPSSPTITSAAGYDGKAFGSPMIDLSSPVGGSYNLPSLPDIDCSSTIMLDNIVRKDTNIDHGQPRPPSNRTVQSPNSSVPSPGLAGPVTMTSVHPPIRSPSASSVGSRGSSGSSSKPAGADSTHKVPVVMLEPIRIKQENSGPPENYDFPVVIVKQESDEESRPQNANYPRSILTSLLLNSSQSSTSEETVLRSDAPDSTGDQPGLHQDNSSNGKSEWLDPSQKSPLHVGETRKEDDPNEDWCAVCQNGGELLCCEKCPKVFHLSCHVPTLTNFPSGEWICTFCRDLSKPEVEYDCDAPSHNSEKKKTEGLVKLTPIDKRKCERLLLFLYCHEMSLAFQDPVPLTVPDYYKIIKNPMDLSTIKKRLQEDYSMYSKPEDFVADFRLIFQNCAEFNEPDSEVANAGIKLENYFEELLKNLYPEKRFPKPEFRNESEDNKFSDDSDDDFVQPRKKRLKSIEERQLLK

T1 sequence (Q16654 whole entry): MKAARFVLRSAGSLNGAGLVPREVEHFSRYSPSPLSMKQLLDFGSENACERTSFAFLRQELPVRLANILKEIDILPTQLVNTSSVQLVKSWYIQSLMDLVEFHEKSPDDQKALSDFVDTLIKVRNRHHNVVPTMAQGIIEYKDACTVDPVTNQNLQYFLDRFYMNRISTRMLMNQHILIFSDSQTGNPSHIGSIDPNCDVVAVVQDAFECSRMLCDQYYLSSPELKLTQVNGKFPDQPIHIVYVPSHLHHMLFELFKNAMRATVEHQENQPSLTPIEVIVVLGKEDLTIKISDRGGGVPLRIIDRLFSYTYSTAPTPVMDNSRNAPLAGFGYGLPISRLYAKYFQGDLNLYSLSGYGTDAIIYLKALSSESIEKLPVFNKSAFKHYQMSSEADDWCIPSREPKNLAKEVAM
T4 sequence (P49137 64-325): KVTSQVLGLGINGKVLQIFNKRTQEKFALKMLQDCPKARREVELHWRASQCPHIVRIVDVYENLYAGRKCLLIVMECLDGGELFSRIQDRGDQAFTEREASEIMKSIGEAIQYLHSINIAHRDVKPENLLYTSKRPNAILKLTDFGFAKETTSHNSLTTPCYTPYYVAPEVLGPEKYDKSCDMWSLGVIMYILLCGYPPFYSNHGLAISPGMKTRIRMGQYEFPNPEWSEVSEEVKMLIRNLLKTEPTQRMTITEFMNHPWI

| ΔTm at 10 µM (PDK4A) [°C] | ΔTm at 10 µM (RIOK1A) [°C] | ΔTm at 10 µM (MAP2K7A) [°C] | ΔTm at 10 µM (MAPKAPK2A) [°C] | ΔTm at 10 µM (NQO2A) [°C] | ΔTm at 10 µM (TIF1A) [°C] | Structure (SMILES) |
| --- | --- | --- | --- | --- | --- | --- |
| 0.8 | 0.5 |  |  |  |  | O=C(NCc1ccccc1Cl)Nc1ccc2cc1OCCOCCNc1ccn3ncc-2c3n1 [compound 17] |
| 1.1 | 1.9 |  |  |  |  | O=C(NCc1ccc(Cl)cc1Cl)Nc1ccc2cc1OCCOCCNc1ccn3ncc-2c3n1 [compound 20] |
| 1.1 | -0.1 |  |  |  |  | O=C(NCc1ccc(Cl)cc1F)Nc1ccc2cc1OCCOCCNc1ccn3ncc-2c3n1 [compound 21] |
| 0.6 | 0.6 |  |  |  |  | Cc1cc(Cl)ccc1CNC(=O)Nc1ccc2cc1OCCOCCNc1ccn3ncc-2c3n1 [compound 23] |
|  |  | 0.3 | 0.1 | -1.9 | 1 | Cc1cc(Br)ccc1CNC(=O)Nc1ccc2cc1OCCOCCNc1ccn3ncc-2c3n1 [compound 24] |
| 0.5 | 1.2 |  |  |  |  | CN1CCN(C(=O)Nc2ccc3cc2OCCOCCNc2ccn4ncc-3c4n2)CC1 [compound 35] |
| 0.8 | 1.1 |  |  |  |  | O=C(NCc1ccc(Cl)cc1)Nc1ccc2cc1OCCOCCNc1ccn3ncc-2c3n1 [compound 19] |
|  |  | 1 | 0.1 | -4.1 | 1.3 | O=C(NCc1ccccc1C(F)(F)F)Nc1ccc2cc1OCCOCCNc1ccn3ncc-2c3n1 [compound 27] |
|  |  | 0 | 0.1 | -1.5 | 0.6 | COc1cc(CNC(=O)Nc2ccc3cc2OCCOCCNc2ccn4ncc-3c4n2)ccc1F [compound 33] |
|  |  | 0.5 | 0.2 | -2.8 | 0.5 | COc1ccc(CNC(=O)Nc2ccc3cc2OCCOCCNc2ccn4ncc-3c4n2)cc1F [compound 32] |
| 1 | 1.4 |  |  |  |  | O=C(NCc1cccc(Cl)c1)Nc1ccc2cc1OCCOCCNc1ccn3ncc-2c3n1 [compound 18] |
|  |  | 0.1 | 0.1 | -1.5 | 0.4 | Cc1ccc(F)cc1CNC(=O)Nc1ccc2cc1OCCOCCNc1ccn3ncc-2c3n1 [compound 26] |
|  |  | 0.1 | 0.2 | -0.5 | 0.5 | COc1ccccc1CNC(=O)Nc1ccc2cc1OCCOCCNc1ccn3ncc-2c3n1 [compound 29] |
|  |  | 0.5 | 0.2 | -0.6 | 0.2 | COc1ccc(CNC(=O)Nc2ccc3cc2OCCOCCNc2ccn4ncc-3c4n2)cc1 [compound 31] |
|  |  | 1.1 | 0.4 | -2.7 | 1.6 | O=C(NCc1ccc(C(F)(F)F)cc1)Nc1ccc2cc1OCCOCCNc1ccn3ncc-2c3n1 [compound 28] |
| -0.7 | 0.1 |  |  |  |  | O=C(NCc1ccccc1)Nc1ccc2cc1OCCOCCNc1ccn3ncc-2c3n1 [compound 16] |
|  |  | 0 | 0.1 | -0.5 | -0.1 | C[C@H](NC(=O)Nc1ccc2cc1OCCOCCNc1ccn3ncc-2c3n1)c1ccccc1 [compound 34] |
|  |  | 0.1 | 0.2 | -0.5 | 0.3 | COc1cccc(CNC(=O)Nc2ccc3cc2OCCOCCNc2ccn4ncc-3c4n2)c1 [compound 30] |
